Data reported in ChEMBL document CHEMBL5131493, “Synthesis and evaluation of RNase L-binding 2-aminothiophenes as anticancer agents” (Bioorg Med Chem, 2022).
Activity calls are given as the source filed them. No cut-off for these calls is given here.

Columns and labels:
Homo sapiens = species on record: Homo sapiens; assay: Binding affinity to RNase L (unknown origin) expressed in Escherichia coli BL21 (DE3) assessed as thermal stability by measuring melting temperature at 60 uM incubated for 50 mins by NanoDSF analysis
MCF7 [1] = assay: Antiproliferative activity against human MCF7 cells assessed as cell growth inhibition at 10 uM incubated for 72 hrs by MTT assay relative to control; type: functional
JAR [2] = assay: Antiproliferative activity against human JAR cells assessed as cell growth inhibition incubated for 72 hrs by MTT assay; type: functional, cell-based
K562 [3] = assay: Antiproliferative activity against human K562 cells assessed as cell growth inhibition incubated for 72 hrs by MTT assay; type: functional, cell-based; settings: K562, 72 h
A549 [4] = assay: Antiproliferative activity against human A549 cells assessed as cell growth inhibition incubated for 72 hrs by MTT assay; type: functional, cell-based; settings: A549, 72 h
JAR [5] = assay: Antiproliferative activity against human JAR cells assessed as cell growth inhibition at 10 uM incubated for 72 hrs by MTT assay relative to control; type: functional
K562 [6] = assay: Antiproliferative activity against human K562 cells assessed as cell growth inhibition at 10 uM incubated for 72 hrs by MTT assay relative to control; type: functional
A549 [7] = assay: Antiproliferative activity against human A549 cells assessed as cell growth inhibition at 10 uM incubated for 72 hrs by MTT assay relative to control; type: functional
MCF7 [8] = assay: Antiproliferative activity against human MCF7 cells assessed as cell growth inhibition incubated for 72 hrs by MTT assay; type: functional, cell-based; settings: MCF7, 72 h
JAR [9] = assay: Induction of apoptosis in human JAR cells assessed as fold increase in cleaved PARP level at 10 uM incubated for 24 hrs by Western blot analysis; type: functional
JAR [10] = assay: Inhibition of cell migration in human JAR cells at 5 uM measured after 72 hrs by scratch wound healing assay relative to control; type: functional
JAR [11] = assay: Inhibition of colony formation in human JAR cells measured after 3 days by Giemsa staining based microscopic analysis; type: functional, cell-based; settings: time 3.0 day, DDE = dose-dependent effect
JAR [12] = assay: Inhibition of colony formation in human JAR cells assessed as cell reproductive death at upto 5 uM measured after 3 days by Giemsa staining based microscopic analysis; type: functional; settings: time 3.0 day

CCOC(=O)C1=C(Nc2ccccc2)S/C(=C2\CCN(C(=O)OC(C)(C)C)C2)C1=O
ΔTm (Homo sapiens): 0.5 °C
inhibition at 10 µM (MCF7 [1]): 33.8%
IC50 (JAR [2]): 37 µM
IC50 (K562 [3]): 11.6 µM
IC50 (A549 [4]): 47 µM

CCOC(=O)C1=C(Nc2ccccc2)S/C(=C\c2ccc(C(=O)O)cc2)C1=O
inhibition at 10 µM (JAR [5]): 16.8%
inhibition at 10 µM (K562 [6]): 27.5%
inhibition at 10 µM (A549 [7]): 11.6%
inhibition at 10 µM (MCF7 [1]): < 10%

CCOC(=O)C1=C(Nc2cccc(F)c2)S/C(=C\c2ccc[nH]2)C1=O
inhibition at 10 µM (JAR [5]): 45.4%
inhibition at 10 µM (A549 [7]): < 10%
inhibition at 10 µM (MCF7 [1]): < 10%
IC50 (JAR [2]): 22.6 µM
IC50 (K562 [3]): > 100 µM

CCOC(=O)C1=C(Nc2ccccc2)S/C(=C\c2ccccc2O)C1=O
inhibition at 10 µM (JAR [5]): 89.4%
IC50 (JAR [2]): 8 µM
IC50 (K562 [3]): 8.8 µM
IC50 (A549 [4]): 16.9 µM
IC50 (MCF7 [8]): 15.1 µM

CCOC(=O)C1=C(Nc2ccccc2)SC(=C2CCCCC2)C1=O
ΔTm (Homo sapiens): 0.7 °C
inhibition at 10 µM (JAR [5]): 15.5%
inhibition at 10 µM (K562 [6]): 18.7%

CCOC(=O)C1=C(Nc2ccc(OC)cc2)S/C(=C\c2ccc[nH]2)C1=O
inhibition at 10 µM (JAR [5]): 27.6%
inhibition at 10 µM (A549 [7]): < 10%
inhibition at 10 µM (MCF7 [1]): < 10%

CCOC(=O)C1=C(Nc2ccccc2)S/C(=C\c2cc3cccnc3[nH]2)C1=O
inhibition at 10 µM (JAR [5]): 54.3%
inhibition at 10 µM (A549 [7]): 16.7%
inhibition at 10 µM (MCF7 [1]): 18.2%
IC50 (JAR [2]): 14.4 µM
IC50 (K562 [3]): > 100 µM

CCOC(=O)C1=C(Nc2ccccc2)S/C(=C\c2ccc(C(=O)OCC)[nH]2)C1=O
inhibition at 10 µM (JAR [5]): 60.1%
inhibition at 10 µM (K562 [6]): 18.6%
inhibition at 10 µM (A549 [7]): < 10%
IC50 (JAR [2]): 10.6 µM
IC50 (K562 [3]): 46.8 µM
IC50 (A549 [4]): > 100 µM
IC50 (MCF7 [8]): 30.5 µM

CCOC(=O)C1=C(Nc2cccc(C(F)(F)F)c2)S/C(=C\c2ccc[nH]2)C1=O
inhibition at 10 µM (JAR [5]): 52.9%
inhibition at 10 µM (A549 [7]): 22.8%
inhibition at 10 µM (MCF7 [1]): 22.9%
IC50 (JAR [2]): 19.7 µM
IC50 (K562 [3]): > 100 µM

CCOC(=O)C1=C(Nc2ccccc2)S/C(=C\c2ccc(O)c(O)c2)C1=O
inhibition at 10 µM (JAR [5]): 48.7%
inhibition at 10 µM (A549 [7]): 30.7%
inhibition at 10 µM (MCF7 [1]): 38.1%
IC50 (JAR [2]): 6.1 µM
IC50 (K562 [3]): 5.2 µM
IC50 (A549 [4]): > 100 µM
IC50 (MCF7 [8]): 25.2 µM

CCOC(=O)C1=C(Nc2ccc([N+](=O)[O-])cc2)S/C(=C\c2ccc[nH]2)C1=O
inhibition at 10 µM (JAR [5]): 54.9%
IC50 (JAR [2]): 15.6 µM
IC50 (K562 [3]): > 100 µM

CCOC(=O)C1=C(Nc2ccccc2)S/C(=C\c2ccc(C(F)(F)F)cc2)C1=O
ΔTm (Homo sapiens): 0.8 °C
inhibition at 10 µM (JAR [5]): 68.7%
inhibition at 10 µM (MCF7 [1]): 41.3%
IC50 (JAR [2]): 5.9 µM
IC50 (K562 [3]): 7 µM
IC50 (A549 [4]): 9.8 µM
IC50 (MCF7 [8]): 13.7 µM

CCOC(=O)C1=C(Nc2ccccc2)S/C(=C\c2ccc(OC)cc2)C1=O
inhibition at 10 µM (JAR [5]): 32.9%
inhibition at 10 µM (K562 [6]): 9.6%
inhibition at 10 µM (A549 [7]): 17.5%
inhibition at 10 µM (MCF7 [1]): 14.7%

CCOC(=O)C1=C(Nc2ccccc2Br)S/C(=C\c2ccc[nH]2)C1=O
inhibition at 10 µM (JAR [5]): 62.7%
inhibition at 10 µM (K562 [6]): 20.5%
inhibition at 10 µM (MCF7 [1]): 29.4%
IC50 (JAR [2]): 8.9 µM
IC50 (K562 [3]): 36.3 µM
IC50 (A549 [4]): 43.2 µM
IC50 (MCF7 [8]): 27.1 µM

CCOC(=O)C1=C(Nc2ccccc2)S/C(=C\c2cccnc2)C1=O
ΔTm (Homo sapiens): 1 °C
inhibition at 10 µM (JAR [5]): 32.1%
inhibition at 10 µM (K562 [6]): < 10%
inhibition at 10 µM (A549 [7]): < 10%
inhibition at 10 µM (MCF7 [1]): < 10%

CN1CCN(c2cc3c(cc2[N+](=O)[O-])-c2c(cnn2-c2ccc(C(=O)O)cc2)C(C)(C)O3)CC1
inhibition at 10 µM (JAR [5]): 53.5%
IC50 (JAR [2]): 9.3 µM
IC50 (K562 [3]): 16.5 µM
IC50 (A549 [4]): > 100 µM

CCOC(=O)C1=C(Nc2ccccc2)S/C(=C\c2ccccc2C(F)(F)F)C1=O
ΔTm (Homo sapiens): 0.8 °C
inhibition at 10 µM (JAR [5]): 29%
inhibition at 10 µM (K562 [6]): 19.7%
inhibition at 10 µM (A549 [7]): < 10%
inhibition at 10 µM (MCF7 [1]): < 10%

CCOC(=O)C1=C(Nc2ccccc2)S/C(=C\c2ccc(O)c(OC)c2)C1=O
ΔTm (Homo sapiens): -1.3 °C
inhibition at 10 µM (JAR [5]): 49.7%
inhibition at 10 µM (A549 [7]): 24.2%
inhibition at 10 µM (MCF7 [1]): 23.2%
IC50 (JAR [2]): 8.9 µM
IC50 (K562 [3]): 10.4 µM
IC50 (A549 [4]): > 100 µM
IC50 (MCF7 [8]): > 100 µM

CCOC(=O)C1=C(Nc2cccc([N+](=O)[O-])c2)S/C(=C\c2ccc[nH]2)C1=O
inhibition at 10 µM (JAR [5]): 57.4%
inhibition at 10 µM (MCF7 [1]): 27.4%
IC50 (JAR [2]): 10.1 µM
IC50 (K562 [3]): 7.2 µM
IC50 (A549 [4]): 23.9 µM
IC50 (MCF7 [8]): 20.7 µM

CCOC(=O)C1=C(Nc2ccccc2)S/C(=C\c2ccccc2)C1=O
ΔTm (Homo sapiens): 0.8 °C
inhibition at 10 µM (JAR [5]): 20.3%
inhibition at 10 µM (K562 [6]): 42.9%
inhibition at 10 µM (A549 [7]): 29.6%
inhibition at 10 µM (MCF7 [1]): 23.6%

CCOC(=O)C1=C(Nc2ccccc2)S/C(=C\C2CCCCC2)C1=O
ΔTm (Homo sapiens): 1.4 °C
inhibition at 10 µM (JAR [5]): 95.2%
inhibition at 10 µM (MCF7 [1]): 45.3%
IC50 (JAR [2]): 3.7 µM
IC50 (K562 [3]): 5.9 µM
IC50 (A549 [4]): 18 µM
IC50 (MCF7 [8]): 6.4 µM
fold change (FC) (JAR [9]): >1.5
inhibition at 5 µM (JAR [10]): 42%
inhibition (JAR [11]): Dde
inhibition (JAR [12]): Active
